# Assay results as given in patent US6541240B1, “Bacterial cleavage of only organic C-N bonds of carbonaceous materials to reduce nitrogen content” (Petroleo Brasileiro S.A.-Petrobras, priority 1999, dated 2003).
# Tests used:
# [1] = tested on: Aneurinibacillus sp.; assay: Nitrogen Availability Assay, growth and substrate range tests of thermophilic culture; conditions: for growth on test compound (substrate range): 3 mM test compound, 2 to 3 weeks incubation; for minimum nitrogen concentration needed for growth: sole nitrogen source
# Protocol: The growth curve for this microorganism on pyridine as sole nitrogen source at 55° C. was determined by adding pyridine at the concentration of 3 mM to the Modified A medium in a 300 ml shake flask with a side arm klett tube to take klett/turbidity readings. Inoculums from log phase cultures were used in studying the growth kinetics of the culture. […] All experiments were in triplicate.
# The concentration of nitrogen required by Aneurinibacillus sp. for growth was investigated using ammonium chloride and pyridine as sole nitrogen sources in modified medium A, at pH 7 and 55° C.
# Substrate range and specificity tests were carried out for this culture. Experiments were performed during 2 to 3 weeks of incubations in sterile tubes with 3 mM concentration of the test compounds and an incubation volume of 5 ml.
# [2] = tested on: Pseudomonas ayucida No PTA-806; assay: Nitrogen Bioavailability Assay, substrate range and specificity tests; format: cell-based; conditions: for growth on test compound as nitrogen source: substrate range and specificity tests
# Text: The ability of bacteria to utilize organic nitrogen compounds for growth can be measured by the Nitrogen Bioavailability Assay (NBA). This assay is based on the fact that all life requires some nitrogen for growth and, therefore, a situation can be created whereby quantifying bacterial growth provides a measure of the utilization of any organic or inorganic compound as a source of nitrogen.
# Thus, the Nitrogen Availability Assay utilizes defined mineral salts medium in growth tests in which organonitrogen model compounds such as quinoline, pyridine, carbazole, and porphyrin serve as sources of carbon and/or nitrogen. Growth tests are performed using six conditions:
# 1. Test compound as sole source of carbon and nitrogen;
# 2. […]
# 3. Test compound as sole source of nitrogen (alternative carbon source, glucose/glycerol/succinate, is available);
# 4. Test compound present as well as alternative sources of carbon and nitrogen;
# 5. Only alternative nitrogen (ammonia) and carbon (glucose/glycerol/succinate) sources are available. The test compound is not present.
# 6. No nitrogen compounds of any kind are present, but alternative carbon (glucose/glycerol/succinate) sources are available.
# These six growth conditions constitute a bioassay for the ability of a culture to metabolize organonitrogen compounds. […]
# The NBA test may be performed with any organonitrogen test compound which is ordinarily used at a concentration of from 3 mM to 20 mM.
# In order to determine the range of organonitrogen compounds that could serve as sole sources of nitrogen for growth for the various pure cultures of the invention various organonitrogen compounds and control compounds are tested according to the Nitrogen Bioavailability Assay procedure. All compounds are highly pure, analytical grade compounds.
# The various cultures are inoculated into test tubes or shake flasks containing media components appropriate for the six test conditions.
# The cultures are then incubated aerobically for 2 to 4 days, at room temperature or at 30° C.
# The growth of the cultures is monitored by measuring the turbidity/optical density of the cultures in the various test conditions, or by determining colony forming units.
# Test condition no 6 (nitrogen-free sample) is a negative control.
# Test conditions no 4 and 5 are positive controls since the samples are amended with both a carbon and nitrogen source and therefore should produce healthy microbial growth unless the test compound is toxic to the culture being tested. In this event only condition no 5 should result in healthy growth.
# Substrate range and specificity tests were also carried out for the microorganism of the invention.
# [3] = tested on: Derivatives of Pseudomonas ayucida No PTA-806; assay: Utilization of organonitrogen compounds by derivative culture; format: cell-based
# Text: Similarly, derivatives of Pseudomonas ayucida No PTA-806 that are resistant to antiobiotics, either by the isolation of chromosomal mutations or by the introduction of suitable plasmids, retain the ability to selectively cleave C—N bonds in quinoline and other organonitrogen compounds.
# [4] = tested on: Pseudomonas stutzeri; assay: Utilization of carbazole as nitrogen or carbon source; format: cell-based
# Protocol: This culture is prepared by the methods described hereinbefore. […] Experimental results lead to the conclusion that C—N bonds in carbazole are selectively cleaved by the Pseudomonas stutzer culture isolated here although the specific metabolites produced have not yet been determined.
# [5] = tested on: Yokenella sp.; assay: as above; format: cell-based
# Protocol: The Yokenella sp. culture is prepared according to the principles described hereinbefore. […] Experimental results lead to the conclusion that C—N bonds in carbazole are selectively cleaved by the Yokenella sp. culture isolated here although the specific metabolites produced have not yet been determined.
# [6] = tested on: Pseudomonas ayucida No PTA-806; assay: Petroleum (shale oil) biodenitrogenation test; format: cell-based; conditions: overnight (16 hour) incubation
# Protocol: One liter of culture OD600=1.67 is produced, which is harvested and the cell pellet is resuspended in 100 mls of ModA medium. The culture is divided into two 50 ml portions and 3 ml of shale oil (1.7 weight % nitrogen) is added to each. Then, the cultures are incubated under agitation at room temperature overnight (16 hours), the oil is separated and analyzed. The amount of quinoline present in oil samples is determined by GC, the area under the peak being corresponding to a retention time for quinoline.
# Then duplicate washed concentrated cell suspensions were incubated with shale oil samples for 16 hours at 30° C. The control sample consisted of shale oil added to sterile ModA medium which was incubated for 16 hours at 30° C. After incubation the petroleum samples were recovered and analyzed.
# [7] = tested on: Pseudomonas nitroreducens
# [8] = modified medium A, pH 7, 55° C.
# [9] = pyridine 3 mM as sole nitrogen source, 55° C., Modified A medium
compound,measurement,setting,value
O=C(O)c1cccnc1 [nicotinic acid],growth on test compound (substrate range),[1],showed growth
same,growth on test compound as nitrogen source,[2],grow
c1ccc2cnccc2c1 [isoquinoline],utilization / metabolism by derivative culture,[3],increased substrate range for the metabolism
c1ccc2c(c1)[nH]c1ccccc12 [carbazole],utilization as sole nitrogen source,[4],able to utilize
same,utilization as source of carbon,[4],dose not utilize
same,utilization as sole nitrogen source,[5],able to utilize
same,utilization as source of carbon,[5],dose not utilize
Cl.N [ammonium chloride],minimum nitrogen concentration needed for growth,[1]; [8],0.5 mM
c1ccc2ncccc2c1 [quinoline],quinoline removed from shale oil,[6],about 68%
same,utilization as carbon source for growth,[2],lack of utilization
same,cell doubling time,"[2]; defined salts medium, 30° C., quinoline as sole nitrogen source",4.25 h
same,growth on test compound as nitrogen source,[2],grow
same,growth with compound as sole source of nitrogen,[7],growth with quinoline as sole source of nitrogen is indicated
same,reduction of total nitrogen content of the medium,[7]; quinoline 3.4 mM as sole source of nitrogen,up to 85%
Nc1nc2nc[nH]c2c(=O)[nH]1 [guanine],growth on test compound (substrate range),[1],showed growth
same,growth on test compound as nitrogen source,[2],grow
"Oc1cc(O)c2ccccc2n1 [2,4-quinolinediol]",growth on test compound as nitrogen source,[2],grow
N[C@@H](Cc1c[nH]c2ccccc12)C(=O)O [tryptophan],growth on test compound (substrate range),[1],showed growth
same,growth on test compound as nitrogen source,[2],grow
c1ccncc1 [pyridine],utilization as carbon source,[1],no utilization
same,growth on test compound (substrate range),[1],showed growth
same,utilization as sole nitrogen source,[1]; 55° C.,able to utilize
same,concentration inhibitory to the culture,[1]; [8],higher than 10 mM
same,exponential growth rate,[1]; [9],0.13 h
same,generation time,[1]; [9],7.55 h
same,minimum nitrogen concentration needed for growth,[1]; [8],0.5 mM
"C=C1N(C)c2ccccc2C1(C)C [2-methylene-1,3,3-trimethyl indoline]",growth in the presence of test compound when quinoline simultaneously present as alternate nitrogen source,[2],grew in the presence of all of the test compounds except
CCCCN1CCCC1 [1-butylpyrrolidine],growth in the presence of test compound when quinoline simultaneously present as alternate nitrogen source,[2],grew in the presence of all of the test compounds except
c1ccc2nccnc2c1 [quinoxaline],growth on test compound as nitrogen source,[2],grow
same,utilization / metabolism by derivative culture,[3],improved ability to utilize
c1ccc2ncncc2c1 [quinazoline],utilization / metabolism by derivative culture,[3],increased substrate range for the metabolism
NC(N)=O [urea],growth on test compound (substrate range),[1],showed growth
same,growth on test compound as nitrogen source,[2],grow
"O=C1CCc2ccccc2N1 [3,4-dihydro-(1H)-quinolinone]",growth on test compound as nitrogen source,[2],grow
Oc1cccc2cccnc12 [8-hydroxyquinoline],growth on test compound as nitrogen source,[2],grow
NCCCC[C@H](N)C(=O)O [lysine],growth on test compound (substrate range),[1],showed growth
same,growth on test compound as nitrogen source,[2],grow
O=c1ccc2cccc(O)c2o1 [8-hydroxycoumarin],utilization as carbon source for growth,[2],lack of utilization
